The subject of the assay is PDE4 activity (cytosol from human neutrophils). Kind of assay: Inhibition of PDE4 activity. The class given is biochemical. More on the design: unit not given here. The conditions noted are these: 0.5 μM cAMP, Motapizone 1 μM included to suppress PDE3. Here is the method:
Method for Measuring Inhibition of PDE4 Activity
PDE4 activity was determined as described by Thompson et al. (Adv Cycl Nucl Res 10: 69–92, 1979) with some modifications (Bauer and Schwabe, Naunyn-Schmiedeberg's Arch Pharmacol 311: 193–198, 1980). At a final assay volume of 200 μl (96well microliter plates) the assay mixture contained 20 mM Tris (pH 7.4), 5 mM MgCl2, 0.5 μM cAMP, [^3H]CAMP (about 30,000 cpm/assay), the test compound and an aliquot of cytosol from human neutrophils which mainly contains PDE4 activity as described by Schudt et al. (Naunyn-Schmiedeberg's Arch Pharmacol 344: 682–690, 1991); the PDE3-specific inhibitor Motapizone (1 μM) was included to suppress PDE3 activity originating from contaminating platelets. […]
After preincubation for 5 min at 37° C., the reaction was started by the addition of substrate (cAMP) and the assays were incubated for further 15 min at 37° C. […] The columns were eluted with 2 ml of 30 mM ammonium formiate (pH 6.0) and the eluate was counted for radioactivity. Results were corrected for blank values (measured in the presence of denatured protein) which were below 5% of total radioactivity. […] The IC50-values for the compounds according to the invention for the inhibition of the PDE4 activity were determined from the concentration-inhibition curves by nonlinear-regression.

SMILES strings stand for the structures.

On to `COc1ccc(C2=NN(C3CCN(C(=O)CN4C(=O)CCC4=O)CC3)C(=O)[C@@H]3CC=CC[C@H]23)cc1OC` [Example 1, 1-(2-{4-[(4aS,8aR)-4-(3,4-Dimethoxy-phenyl)-1-oxo-4a,5,8,8a-tetrahydro-yl]-piperidin-1-yl}-2-oxo-ethyl)-pyrrolidine-2,5-dione], for which the “Inhibition of PDE4 activity, −logIC50” value is recorded as 10.66.

The values are drawn from patent US7220746B2, “Pyrrolidinedione substituted piperidine-phthalazones as PDE4 inhibitors” (Altana Pharma AG, priority 2002, dated 2007).
